Laboratory results reported in the NIST ThermoML archive (doi:10.1016/j.jct.2015.08.014).

Assay: xn = mol fraction of the nth substance listed
Settings: 323.15 K, 100 kPa, Liquid; for electrical conductivity: Alternating current cell with electrodes; for mass density: Vibrating tube method

CCCC[N+]1(C)CCCC1.N#CN=C=[N-] [1-butyl-1-methylpyrrolidinium dicyanamide] + O=C1CCCO1
electrical conductivity [S/m]
Settings | Frequency=0.005454 MHz | Frequency=0.006 MHz | Frequency=0.00652174 MHz | Frequency=0.00694444 MHz | Frequency=0.0075 MHz | Frequency=0.008 MHz | Frequency=0.00857143 MHz | Frequency=0.00892857 MHz | Frequency=0.00961538 MHz | Frequency=0.01 MHz
x1 = 0.0463 | – | 2.01 | 2.01 | 2.01 | 2.01 | 2.01 | 2.01 | 2.01 | 2.01 | 2.01
x1 = 0.0987 | – | 3.08 | 3.08 | 3.08 | 3.08 | 3.08 | 3.08 | 3.08 | 3.08 | 3.08
x1 = 0.1449 | – | 3.57 | 3.57 | 3.57 | 3.57 | 3.57 | 3.57 | 3.57 | 3.57 | 3.57
x1 = 0.1859 | – | 3.86 | 3.86 | 3.86 | 3.86 | 3.86 | 3.86 | 3.86 | 3.86 | 3.86
x1 = 0.2493 | – | 3.89 | 3.9 | 3.9 | 3.9 | 3.9 | 3.9 | 3.9 | 3.9 | 3.9
x1 = 0.3029 | – | 3.88 | 3.88 | 3.88 | 3.88 | 3.88 | 3.88 | 3.88 | 3.88 | 3.88
x1 = 0.3845 | – | 3.74 | 3.74 | 3.74 | 3.74 | 3.74 | 3.74 | 3.74 | 3.74 | 3.74
x1 = 0.4985 | – | 3.46 | 3.46 | 3.46 | 3.46 | 3.46 | 3.46 | 3.46 | 3.46 | 3.46
x1 = 0.6954 | – | 2.99 | 2.99 | 2.99 | 2.99 | 2.99 | 2.99 | 2.99 | 3 | 3
x1 = 0.9013 | 2.633 | 2.633 | 2.63 | 2.63 | 2.63 | 2.63 | 2.63 | 2.63 | 2.63 | 2.63
x1 = 1 | 2.529 | 2.529 | 2.529 | 2.529 | 2.529 | 2.529 | 2.529 | 2.529 | 2.529 | 2.529

Settings | mass density [kg/m3]
x1 = 0.0987 | 1082.02
x1 = 0.1859 | 1067.9
x1 = 0.3029 | 1051.93
x1 = 0.4985 | 1031.43
x1 = 0.6954 | 1016.21
x1 = 0.9013 | 1004.23
x1 = 1 | 999.525
